From US9688624B2, “DP2 antagonist and uses thereof” (Brickell Biotech, Inc., priority 2010, dated 2017)
Structures can show the parent of a compound that is named as a salt. Where two headings read alike, the source gives them in different places.

Legend:
[1] = target: T1, DP2 receptor (Homo sapiens (Human), UniProt Q9Y5Y4); assay: In vitro whole blood eosinophil shape change (ESC) assay, PGD2-induced; assay type: cell-based
Experimental: Example 17: In Vitro Whole Blood Esoinophil Shape Change Assay
Compound 1 was evaluated in a whole blood assay of eosinophil shape change (ESC) to determine the ability of Compound 1 to antagonize a PGD2-stimulated functional response in the context of whole blood.
Blood is drawn from consenting human volunteers in EDTA vacutainer tubes and used within 1 hr of draw. A 98 μl aliquot of blood is mixed with 2 μl of Compound 1 (in 50% DMSO) in 1.2 ml polypropylene tubes. The blood is vortexed and incubated at 37° C. for 5 minutes. 5 μl of 1 μM PGD2 in PBS is added for a final concentration of 50 nM and the tubes briefly vortexed. The reactions are incubated for exactly 5 minutes at 37° C. and then terminated by placing the tubes on ice and immediately adding 250 μl of ice-cold 1:4 diluted Cytofix (BD Biosciences). The reactions are transferred to […] polystyrene round bottom tubes and the red blood cells lysed by the addition of 3 ml ammonium chloride lysing solution (150 mM NH4C1, 10 mM KHCO3, 0.1 mM EDTA disodium salt) and incubation at room temperature for 15 minutes. The cells are pelleted by spinning at 1300 rpm for 5 minutes at 4° C. and washed once with 3 ml ice-cold PBS. The cells are resuspended in 0.2 ml of ice-cold 1:4 diluted Cytofix (BD Biosciences) and analyzed on a FACSCalibur (BD Biosciences) within 2 hours. Eosinophils were gated on the basis of autofluorescence in the FL2 channel and shape change on 500 eosinophils was assayed by forward scatter and side scatter analysis. The specific change in shape induced by PGD2 was calculated as the difference between the percentage of high forward scatter eosinophils in the presence and absence of PGD2. IC50s were determined using Graphpad Prism® analysis of drug titration curves.

[2] = target: guinea pig DP2 receptor (Cavia porcellus, UniProt H0W1T0); assay: In vitro DP2/CRTH2 radioligand ([3H]PGD2) membrane binding assay
Experimental: Example 15: In Vitro DP2/CRTH2 Binding Assay
The ability of Compound 1 to bind to the human DP2 receptor was assessed via a radioligand binding assay using [^3H]PGD2. HEK293 cells stably expressing recombinant human DP2 are resuspended in 10 mM Hepes, 7.4 containing 1 mM DTT, lysed and centrifuged at 75,000×g to pellet the membranes. The membranes are resuspended in 10 mM Hepes, 7.4 containing 1 mM DTT and 10% glycerol to approximately 5 mg protein/ml. Membranes (2-10 μg protein/well) are incubated in 96-well plates with 1 nM [^3H]PGD2 and Compound 1 in Assay Buffer (50 mM Hepes, 10 mM MnCl2, 1 mM EDTA, plus or minus 0.2% human serum albumin, pH 7.4) for 60 minutes at room temperature. The reactions are terminated by rapid filtration through Whatman GF/C glass fibre filter plates. The filter plates were pre-soaked in 0.33% polythylenimine for 30 minutes at room temperature then washed in Wash Buffer (50 mM Hepes, 0.5 M NaCl pH 7.4) prior to harvesting. After harvesting, the filter plates are washed 3 times with 1 ml cold Wash Buffer then dried. Scintillant is then added to the plates and the radioactivity retained on the filters is determined on a Packard TopCount (Perkin Elmer). Specific binding is determined as total radioactive binding minus non-specific binding in the presence of 10 μM PGD2. IC50s were determined using GraphPad prism analysis of drug titration curves. […]

[3] = system: ovalbumin (OVA)-induced allergic rhinitis; assay: Mouse allergic rhinitis model; assay type: in vivo; settings: 10 mg/kg PO daily
Experimental: Example 18: Mouse Allergic Rhinitis Model
Compound 2 was evaluated in a mouse model of ovalbumin (OVA)-induced allergic rhinitis in which nasal ovalbumin challenges to OVA-primed mice elicits an increase in sneezing and nasal rubs (Methods were adapted from those detailed in Nakaya, M., et al. 2006, Laboratory Investigation, 86:917-926). OVA-primed mice received an intranasal challenge of OVA daily for 5 consecutive days. The number of sneezes and nasal rubs were counted over an 8 minute recording session on days 1, 3 and 5 immediately following OVA challenge. OVA caused a significant increase in both sneezing behavior and nasal rubs when compared to intranasal phosphate buffered saline (PBS) challenge. […] The plasma exposure for Compound 1 measured in a satellite group was 1360 nM, 460 nM, 210 nM and 90 nM for time points 1, 2, 4, and 6 hr post-dose, respectively.

[4] = target: CYP3A4 (Homo sapiens (Human), UniProt P08684); assay: Extracellular cytochrome P450 inhibition (microsomes); assay type: in vitro ADME
[5] = target: T1, DP2 receptor; assay: Phase I single ascending dose study, ex vivo PGD2-induced blood eosinophil shape change (ESC); assay type: in vivo; settings: humans
Experimental: Procedure Evaluate Effects of Compound 1 on Ex Vivo PGD2-Induced Blood Eosinophil Shape Change (ESC)
Pre dose blood is drawn and challenged with PGD2 to determine baseline shape change as described above in Example 17. At varying times after dosing blood is drawn for both pharmacokinetic analyses of drug concentration in blood, and also for PGD2 challenge and eosinophil shape change determination. The extent of receptor blockage is determined from the relationship between drug blood concentration and percentage inhibition of eosinophil shape change.

[6] = Capsule formulation pharmacokinetics in male Beagle dogs; assay type: in vivo; settings: dog, fasted; for half-life: read-out: t1/2 24 hr (converted)
Experimental: In a separate study, male Beagle dogs were dosed with the capsule formulations as described herein.

[7] = target: CYP1A2 (Homo sapiens (Human), UniProt P05177); assay: Extracellular cytochrome P450 inhibition (microsomes)
[8] = male, Beagle, in vivo, po, Capsule, 5.6 mg/kg
[9] = male, Beagle, in vivo, po, EC-Capsule (L100-55), 5 mg/kg
[10] = male, Beagle, in vivo, IV saline, 2 mg/kg

CYP3A4, sequence (P08684 whole entry): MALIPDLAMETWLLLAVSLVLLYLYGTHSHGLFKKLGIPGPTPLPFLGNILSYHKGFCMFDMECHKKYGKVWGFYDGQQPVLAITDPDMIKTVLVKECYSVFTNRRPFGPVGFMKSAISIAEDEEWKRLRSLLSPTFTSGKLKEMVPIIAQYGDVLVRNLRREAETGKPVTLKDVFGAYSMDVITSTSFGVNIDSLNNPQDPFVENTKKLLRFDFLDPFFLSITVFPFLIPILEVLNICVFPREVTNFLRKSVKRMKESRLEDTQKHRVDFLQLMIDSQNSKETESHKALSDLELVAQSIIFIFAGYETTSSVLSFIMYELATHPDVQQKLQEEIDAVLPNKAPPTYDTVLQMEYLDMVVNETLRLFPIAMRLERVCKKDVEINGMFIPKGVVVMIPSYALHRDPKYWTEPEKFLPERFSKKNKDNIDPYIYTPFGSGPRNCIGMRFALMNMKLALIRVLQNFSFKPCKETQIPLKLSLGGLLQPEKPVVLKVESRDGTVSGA
T1 sequence (Q9Y5Y4 whole entry): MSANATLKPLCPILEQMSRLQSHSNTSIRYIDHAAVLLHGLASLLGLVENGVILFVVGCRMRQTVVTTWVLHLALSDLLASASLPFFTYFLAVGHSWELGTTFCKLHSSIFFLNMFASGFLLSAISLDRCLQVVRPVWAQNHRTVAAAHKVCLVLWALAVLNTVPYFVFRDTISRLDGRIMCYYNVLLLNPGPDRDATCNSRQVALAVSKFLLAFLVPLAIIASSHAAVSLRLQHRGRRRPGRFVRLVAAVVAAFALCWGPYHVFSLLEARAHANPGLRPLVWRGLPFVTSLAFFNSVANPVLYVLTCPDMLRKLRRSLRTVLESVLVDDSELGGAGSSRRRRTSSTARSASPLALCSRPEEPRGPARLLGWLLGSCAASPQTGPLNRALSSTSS
guinea pig DP2 receptor, sequence (H0W1T0 1-391): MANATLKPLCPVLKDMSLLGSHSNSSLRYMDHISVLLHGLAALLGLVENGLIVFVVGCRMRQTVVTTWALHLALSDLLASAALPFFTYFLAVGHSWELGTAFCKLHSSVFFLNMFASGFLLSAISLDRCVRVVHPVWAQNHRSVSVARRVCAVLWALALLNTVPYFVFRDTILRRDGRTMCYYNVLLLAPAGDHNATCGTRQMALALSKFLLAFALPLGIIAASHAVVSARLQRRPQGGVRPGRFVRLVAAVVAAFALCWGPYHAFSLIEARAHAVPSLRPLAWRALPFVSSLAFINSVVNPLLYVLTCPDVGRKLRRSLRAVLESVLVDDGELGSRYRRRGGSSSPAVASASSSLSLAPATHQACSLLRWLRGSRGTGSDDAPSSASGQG
CYP1A2, sequence (P05177 whole entry): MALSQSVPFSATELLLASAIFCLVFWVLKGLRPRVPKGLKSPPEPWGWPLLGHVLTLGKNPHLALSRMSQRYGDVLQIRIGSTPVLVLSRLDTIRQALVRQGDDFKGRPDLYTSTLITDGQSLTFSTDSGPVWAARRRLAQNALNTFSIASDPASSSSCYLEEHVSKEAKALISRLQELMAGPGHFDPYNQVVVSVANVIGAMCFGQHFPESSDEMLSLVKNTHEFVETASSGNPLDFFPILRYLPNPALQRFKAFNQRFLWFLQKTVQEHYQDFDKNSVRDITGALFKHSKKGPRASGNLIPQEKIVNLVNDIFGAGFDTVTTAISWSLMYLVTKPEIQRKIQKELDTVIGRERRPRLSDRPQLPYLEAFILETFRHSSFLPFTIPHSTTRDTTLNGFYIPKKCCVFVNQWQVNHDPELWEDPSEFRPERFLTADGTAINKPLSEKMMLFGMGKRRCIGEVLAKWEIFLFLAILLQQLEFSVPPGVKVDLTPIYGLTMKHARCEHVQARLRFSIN

COc1ccc(CC(=O)O)cc1Oc1ccc(NC(=O)C(C)(C)C)cc1CSC(C)(C)C [Compound 1, 2-(3-(2-((tert-butylthio)methyl)-4-(2,2-dimethyl-propionylamino)phenoxy)-4-methoxyphenyl)acetic acid]
IC90 [1]: 5.5 nM
IC50 ([1]; average, 50 nM PGD2, read-out: IC50, PGD2-induced eosinophil shape change in human whole blood): 1.5 nM
IC90 ([1]; same value expressed in ng/mL): 2.6 ng/mL
IC50 ([1]; same value expressed in ng/mL, read-out: IC50, human ESC (converted)): 1.52 nM
IC50 ([2]; 0.2% guinea pig serum albumin, read-out: IC50, radioligand membrane binding on guinea pig DP2): 20.3 nM
IC50 ([2]; average, without serum albumin, read-out: IC50, inhibition of radiolabeled PGD2 binding to guinea pig DP2): 10.6 nM

COc1ccc(CC(=O)O)cc1Oc1ccc(NC(=O)C(C)(C)C)cc1CSC(C)(C)C [Compound 2, 2-(3-(2-((tert-butylthio)methyl)-4-(2,2-dimethyl-propionylamino)phenoxy)-4-methoxyphenyl)acetic acid, sodium salt]
nasal responses (sneezes and nasal rubs) after OVA challenge [3]: significantly reduced
IC50 ([4]; 3A4, midazolam 1-hydroxylation, read-out: IC50): > 50000 nM
IC50 ([4]; 3A4, testosterone 6β-hydroxylation, read-out: IC50): 26000 nM
IC50 ([4]; not a potent inhibitor, read-out: IC50, CYP3A4 (summary statement)): > 25000 nM
24 hr PD response (inhibition of ex vivo ESC) ([5]; 500 mg single dose, 24 hr): ~50%
pharmacodynamic dose response (ex vivo ESC inhibition) ([5]; >150 mg, at 0.5, 2 hr and 8 hr): maximal inhibition achieved
CO ([6]; IV saline, 2 mg/kg): 10.3 µg/mL
ClPl ([6]; IV saline, 2 mg/kg): 5.0 mL/min/kg
AUC [6, 8]: 14300 ng·h/mL
Cmax [6, 8]: 4800 ng/mL
Tmax [6, 8]: 2.1 h
bioavailability [6, 8]: 78.6%
half-life [6, 8]: 2.8 h
AUC [6, 9]: 20900 ng·h/mL
Cmax [6, 9]: 14400 ng/mL
Tmax [6, 9]: 1 h
bioavailability [6, 9]: 128%
half-life [6, 9]: 2.4 h
AUC [6, 10]: 6500 ng·h/mL
Tmax [6, 10]: 0.1 h
Vd ([6]; male, Beagle, in vivo, IV saline, 2 mg/kg, read-out: VDss): 0.9 L/kg
half-life [6, 10]: 5.1 h
IC50 [7]: > 25000 nM
